In PMC6208443 (Nature Communications, 2018):

Key:
Type in all cases: binding, Arabidopsis thaliana
Details in all cases: result in words
CMT3 = assay: Peptide affinity purification and mass spectrometry, CMT3
Procedure: (§1) To extract the nuclear proteins for peptide affinity purification, 1 g of wild-type Arabidopsis flowers was harvested and ground in liquid nitrogen. […] The filtrates were centrifuged at 2000 g for 15 min at 4 °C to precipitate the nuclei. Nuclear pellets were washed two times with 1 ml of Honda buffer and then were resuspended in 600 μl of Nuclei Lysis Buffer (50 mM Tris-HCl pH 8.0, 150 mM NaCl, 1% NP40, 0.5 mM DTT, 1 mM PMSF, Roche protease inhibitor cocktail). After sonication, nuclei extracts were centrifuged at 20,000 g for 10 min at 4 °C. The supernatant was incubated with 2 μg of biotinylated histone peptides and Streptavidin Magnetic Beads (Thermo Scientific, 88816) for 3 h with rotation at 4 °C. […] After incubation, beads were washed three times with wash buffer 1 (320 mM NaCl, 50 mM Tris-HCl pH 8.0, 0.5% NP40), and three times with wash buffer 2 (150 mM NaCl, 50 mM Tris-HCl pH 8.0).
(§2) For LC-MS/MS analysis, IP beads with captured proteins were lysed in 12 mM sodium deoxycholate (SDC)-sodium lauroyl sarcosinate (SLS): 100 mM Tris-HCl (pH 8.5), 12 mM SDC, and 12 mM SLS. Proteins were reduced and alkylated with 10 mM tris-(2-carboxyethyl) phosphine and 40 mM chloroacetamide at 95 °C for 5 min. The supernatant containing reduced and alkylated proteins was transferred into a new Eppendorf tube and diluted fivefold with 50 mM triethylammonium hydrogen carbonate buffer and digested with 500 ng trypsin (Sigma) overnight. The SDC and SLS were removed by adding 100% acetyl acetate in a ratio 1:1 (vol/vol) sample to acetyl acetate volume ratio. Samples were acidified with 10% trifluoroacetic acid to pH ~3, and desalted by a custom-made stage tip with a styrene divinyl benzene (SDB-XC) membrane (3 M). The dried peptides were resuspended in 30 μL of 0.3% formic acid (FA) with 3% acetonitrile (ACN), quantified by BCA assay (Thermo Fisher Scientific), and injected into an Easy-nLC 1000 (Thermo Fisher Scientific). Peptides were separated on a 45 cm in-house packed column (360 μm OD × 75 μm ID) containing C18 resin (2.2 μm, 100 Å, Michrom Bioresources) with a 30 cm column heater (Analytical Sales and Services) set at 60 °C. The mobile phase buffer consisted of 0.1% FA in ultra-pure water (buffer A) with an eluting buffer of 0.1% FA in 80% ACN (buffer B) run over a linear 65 min gradient of 5%-30% buffer B at a flow rate of 250 nL/min. The Easy-nLC 1000 was coupled online with a Velos Pro LTQ-Orbitrap mass spectrometer (Thermo Fisher Scientific). […] Search was performed with full tryptic digestion and allowed a maximum of two missed cleavages on the peptides analyzed from the sequence database. […]

CMT2 = assay: Peptide affinity purification and mass spectrometry, CMT2
Procedure: as §1, §2

EDM2 = assay: Peptide affinity purification and mass spectrometry, EDM2
Procedure: as §1
(§3) For LC-MS/MS analysis, IP beads with captured proteins were lysed in 12 mM sodium deoxycholate (SDC)-sodium lauroyl sarcosinate (SLS): 100 mM Tris-HCl (pH 8.5), 12 mM SDC, and 12 mM SLS. Proteins were reduced and alkylated with 10 mM tris-(2-carboxyethyl) phosphine and 40 mM chloroacetamide at 95 °C for 5 min. The supernatant containing reduced and alkylated proteins was transferred into a new Eppendorf tube and diluted fivefold with 50 mM triethylammonium hydrogen carbonate buffer and digested with 500 ng trypsin (Sigma) overnight. The SDC and SLS were removed by adding 100% acetyl acetate in a ratio 1:1 (vol/vol) sample to acetyl acetate volume ratio. Samples were acidified with 10% trifluoroacetic acid to pH ~3, and desalted by a custom-made stage tip with a styrene divinyl benzene (SDB-XC) membrane (3 M). The dried peptides were resuspended in 30 μL of 0.3% formic acid (FA) with 3% acetonitrile (ACN), quantified by BCA assay (Thermo Fisher Scientific), and injected into an Easy-nLC 1000 (Thermo Fisher Scientific). Peptides were separated on a 45 cm in-house packed column (360 μm OD × 75 μm ID) containing C18 resin (2.2 μm, 100 Å, Michrom Bioresources) with a 30 cm column heater (Analytical Sales and Services) set at 60 °C. The mobile phase buffer consisted of 0.1% FA in ultra-pure water (buffer A) with an eluting buffer of 0.1% FA in 80% ACN (buffer B) run over a linear 65 min gradient of 5%-30% buffer B at a flow rate of 250 nL/min. The Easy-nLC 1000 was coupled online with a Velos Pro LTQ-Orbitrap mass spectrometer (Thermo Fisher Scientific). The mass spectrometer was operated in the data-dependent mode in which a full MS scan (from m/z 350–1500 with the resolution of 30,000 at 400 m/z) was followed by the 10 most intense ions being subjected to collision-induced dissociation (CID) fragmentation. […]

AGDP1 = assay: Peptide affinity purification and mass spectrometry, AGDP1
Procedure: as §1, §3

| Substance | presence in pull-down products (CMT3) | presence in pull-down products (CMT2) | presence in pull-down products (EDM2) | identification from pull-down samples (AGDP1) |
| --- | --- | --- | --- | --- |
| H3(1-21): synthesized biotinylated H3(1-21) peptide, EMD Millipore | not in H3 pull-down products | not in H3 pull-down products | not in H3 pull-down products | not from the H3 pull-down samples |
| H3(1-21)K9me1: synthesized biotinylated H3(1-21)K9me1 peptide, EMD Millipore | present | present | present | identified |
| H3(1-21)K9me2: synthesized biotinylated H3(1-21)K9me2 peptide, EMD Millipore | present | present | present | identified |
| H3(1-21)K9me3: synthesized biotinylated H3(1-21)K9me3 peptide, EMD Millipore | present | present | present | identified |
